Test results taken from patent publication US20220088031A1, “METHODS AND COMPOSITIONS FOR TREATING RESISTANT AND RECURRENT FORMS OF CANCER” (Health Research, Inc., priority 2019, published 2022).

Assays:
Format in all cases: cell-based, human
E006AA cells [1] = test: Cell death quantification, Trypan blue exclusion assay; settings: combined treatment with DOC (24 hrs)
Method: Cell viability assay: PCa cells (5×10^4 cells/well) were seeded on 6-well cell culture plates and incubated with DOC (1-20 nM) for 24 hrs. Floating and attached cells were collected using trypsinization. Live and dead cells were counted under a light microscope using a trypan blue exclusion assay.

[2] = test system: Nrf1 binding with CC promoter in E006AA cells; test: Chromatin immunoprecipitation (ChIP) assay, Nrf1 binding with CC promoter
Method: Chromatin immunoprecipitation (ChIP) assay: The association of Nrf1 transcription factor with CYCS promoter within the LNCaP and E006AA cells was detected using a chromatin immunoprecipitation (ChIP) Assay Kit (Millipore, Billerica, Mass.; Cat #17-295) according to the manufacturer's instructions. In brief, 1 million cells were fixed in formaldehyde for 15 min and chromatin was sheared using Bioruptor sonication device for 10 min in ice with 30 sec on/off cycle (Diagenode, Denville, N.J.). Ten μ1 sonicated samples (of 2 ml total volume) were separated as input. Chromatin was immunoprecipitated with 1.0 μg of Nrf1 or normal rabbit IgG (Santa Cruz Biotechnology) antibody at 4° C. overnight. Each sample (5 μl) was used as a template for PCR amplification and 20 μl of the 50 μl PCR product was loaded onto agarose gels. CYCS oligonucleotide sequence encompasses the CYCS promoter segment that includes the Nrf1 binding sites for PCR primers viz 5′-[…]-3′ [SEQ ID:7] and 5′-[…]-3′ [SEQ ID:8]. PCR mixtures were amplified for 1 cycle at 94° C. for 5 min followed by 35 cycles at 94° C. for 30 s, 55° C. for 30 s and 72° C. for 30 s, and then subjected to final elongation at 72° C. for 10 min. PCR products were run on 2% agarose gel and analyzed using ethidium bromide staining.

[3] = test system: CC promoter activity in E006AA cells; test: Cytochrome c (CYCS) promoter reporter (luciferase) assay; settings: CYCS-Luc transfected cells, 24 hrs
Method: Cytochrome c (CYCS) promoter reporter assay: CYCS promoter reporter clone and empty pLightSwitch vector were purchased from SwitchGear Genomics, Menlo Park, Calif. (Cat #S721763). The reporter construct was prepared by cloning −1000 bp of CYCS promoter from the transcription initiation site. Plasmids were transformed in DH5a E. Coli strain and were isolated using a Zymo Plasmid MidiPrep kit (Zymo research, cat #D4200). The Nrf1 binding site in the p-CYCS-SwichGear-Luc construct was deleted using a QuickChange II XL site-directed mutagenesis kit (Agilent Technologies, Wilmington, Del. Cat #200521). LNCaP and E006AA cells were seeded in 96 well plates and transfected with either pLightSwitch empty vector or CYCS promoter reporter clones using a lipofectamine 3000 transfection kit (ThermoFisher Scientific, Waltham, Mass.). Cells were harvested after 48 hrs. Luciferase activity assay was performed using LightSwitch Assay Reagent (SwitchGear Genomics, Menlo Park, Calif. Cat #LS010).

E006AA cells [4] = test: Seahorse XF bioenergetics assay, glycolytic reserve capacity; settings: for glycolytic reserve capacity: in the presence of DOC, compared to control or DOC alone
Method: Seahorse XF bioenergetics assay: Basal glycolytic reserve capacity in PC-3, DU145, and […] PCa cells was assessed using an Agilent seahorse XF glycolytic stress test kit (Agilent Technologies Inc., Wilmington, Del.) and a Seahorse XF96 analyzer (Agilent Technologies Inc., Wilmington, Del.) analyzer as described. ATP production in […] cells after treatment with drug combinations was assessed using a Mito Stress test kit (Agilent Technologies Inc., Wilmington, Del.).

E006AA cells [5] = test: Mitochondrial ROS production, MitoSOX dye, flow cytometry
E006AA cells [6] = test: Clonogenic assay
Method: Clonogenic assay: PCa cells were seeded in each well of 6 well cell culture plates. Cells were treated and plates were incubated in a CO2 cell culture incubator for 6 more days. Colonies were fixed in 10% formalin first and stained with 0.5% crystal violet solution. Plates were dried and pictures were captured using a Gel documentation system and Coomassie blue filter (Bio Rad, Hercules, Calif.).

Row | Molecule | cell death (E006AA cells [1]) | binding of Nrf1 to the CC promoter ([2]; agent alone) | binding of Nrf1 to the CC promoter ([2]; combined with DOC (24 hrs)) | CYCS promoter activity (luciferase) [3] | glycolytic reserve capacity (E006AA cells [4]) | MitoROS production (E006AA cells [5]; agent alone) | MitoROS production (E006AA cells [5]; in combination with DOC) | colony forming ability (CFA) (E006AA cells [6]; with DOC) | colony forming ability (CFA) (E006AA cells [6]; without DOC) | glycolytic reserve (E006AA cells [4]; agent alone)
1 | Cc1ccc(NCCCc2ccccc2)c(N)c1 [NF-κB inhibitor, JSH-23] | enhanced cell death | enhanced binding of Nrf1 to the CC promoter | enhanced binding of Nrf1 to the CC promoter | increased the CYCS promoter activity | inhibited glycolytic reserve capacity | MitoROS production | MitoROS production | reduced the CFA | reduced the CFA | –
2 | CCc1ccc(/C=C2/SC(=S)NC2=O)cc1 [c-Myc inhibitor, 10058-F4] | enhanced cell death | enhanced binding of Nrf1 to the CC promoter | enhanced binding of Nrf1 to the CC promoter | increased the CYCS promoter activity | inhibited glycolytic reserve capacity | – | – | reduced the CFA | reduced the CFA | –
3 | bisperoxovanadium 5-hydroxipyridine [AKT activator] | enhanced cell death | enhanced binding of Nrf1 to the CC promoter | enhanced binding of Nrf1 to the CC promoter | increased the CYCS promoter activity | inhibited glycolytic reserve capacity | MitoROS production | MitoROS production | reduced the CFA | reduced the CFA | inhibited glycolytic reserve
